EP0657459A1, “Thienothiazine derivates, process for their preparation and their use as anti-inflammatory and analgesic agents” (Chemisch Pharmazeutische Forschungsgesellschaft m.b.H., priority 1993, dated 1995)
Read-outs that look alike come from different tables or passages of the source.

Columns and labels:
5-Lipoxygenase = target: T1, 5-Lipoxygenase (Rattus norvegicus, UniProt P12527); assay: Formation of leukotriene B4 by neutrophils as measure of 5-lipoxygenase activity (A23187 stimulation, RIA); assay type: cell-based, Sprague Dawley Ratten
T1 sequence (P12527 1-673): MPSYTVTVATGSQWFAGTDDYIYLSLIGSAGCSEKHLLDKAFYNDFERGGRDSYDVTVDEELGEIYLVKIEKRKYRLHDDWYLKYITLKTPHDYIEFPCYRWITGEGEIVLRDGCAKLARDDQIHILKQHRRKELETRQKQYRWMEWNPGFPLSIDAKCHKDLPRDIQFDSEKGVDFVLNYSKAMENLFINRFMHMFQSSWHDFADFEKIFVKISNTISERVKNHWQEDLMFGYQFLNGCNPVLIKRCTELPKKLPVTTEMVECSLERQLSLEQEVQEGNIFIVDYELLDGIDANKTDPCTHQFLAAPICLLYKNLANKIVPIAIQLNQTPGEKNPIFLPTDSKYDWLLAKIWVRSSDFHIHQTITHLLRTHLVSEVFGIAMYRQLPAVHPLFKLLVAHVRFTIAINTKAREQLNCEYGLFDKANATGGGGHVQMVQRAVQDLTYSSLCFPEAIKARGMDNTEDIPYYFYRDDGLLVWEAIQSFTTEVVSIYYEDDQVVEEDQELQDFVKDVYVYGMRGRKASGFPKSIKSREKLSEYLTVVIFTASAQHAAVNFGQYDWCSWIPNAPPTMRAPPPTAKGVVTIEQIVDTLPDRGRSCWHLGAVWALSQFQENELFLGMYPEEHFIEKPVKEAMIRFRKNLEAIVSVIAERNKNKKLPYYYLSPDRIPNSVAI
Experimental: (§1) Die Bildung von Prostaglandin D2 durch Neutrophile wurde als Maß für die Cyclooxygenase-Aktivität verwendet und die Bildung von Leukotrien B4 als Maß für die 5-Lipoxygenase-Aktivität. Männlichen Sprague Dawley Ratten (250-300 g) wurde lamda - Carrageenan 1 mg intraperitoneal (gelöst in 0.5 ml dest. Wasser) injiziert. Nach 16 Stunden wurden die Ratten durch Exposition in Diethylether getötet. 15 ml eiskalte Hanks balanced salt solution (HBSS) wurden i.p. injiziert, die Neutrophilen durch Absaugen geerntet (10 ml), zentrifugiert (5 min, 100g, 4°C), die überstehende Lösung dekantiert und die Zellen in HBSS resuspendiert bei 4 °C bis zu einer Konzentration von 5x10⁶ Zellen/ml. 400 µl Zellsuspension (2x10⁶ Zellen), 0,5µl Verbindung gelöst in DMSO und 49,5 µl HBSS wurden 5 min bei 37°C inkubiert. Dann wurden 50 µl A23187 (2µmol/l Endkonzentration) zugefügt und anschließend wiederum 5 min bei 37°C inkubiert. Die Reaktion wurde durch Zentrifugieren 10000g, 3s gestoppt und die überstehende Flüssigkeit in vorgekühlte Plastikröhrchen übergeführt und vor dem Beginn der Radioimmunoassay-Messung im Eisbad max. 1 h belassen. PGD2 und LTB4 wurde nach Verdünnung mit HBSS mit Hilfe kommerzieller RIA-Kits gemessen. Als Vergleichssubstanz diente 6-Chlor-4-hydroxy-2-methyl-N-(2-pyridyl)-2H-thieno(2,3-e)1,2-thiazin-3carboxamid-1,1-dioxid ("Lornoxicam", Vbg.A)

Cyclooxygenase = assay: Formation of prostaglandin D2 by neutrophils as measure of cyclooxygenase activity (A23187 stimulation, RIA); assay type: cell-based, Sprague Dawley Ratten
Experimental: as §1

[1] = rat peritoneal neutrophils (carrageenan-elicited), 2x10⁶ cells, A23187 2 µmol/l, 5 min 37°C, LTB4 by RIA, read-out: IC50 (µmol/l) LTB4
[2] = read-out: IC50 (µmol/l) PGD2, rat peritoneal neutrophils (carrageenan-elicited), 2x10⁶ cells, A23187 2 µmol/l, 5 min 37°C

With CN1C(C(=O)Nc2ccccn2)=C(O)c2sc(Cl)cc2S1(=O)=O [A] the IC50 (5-Lipoxygenase; [1]) was > 10 µmol/L and the IC50 (Cyclooxygenase; rat peritoneal neutrophils (carrageenan-elicited), 2x10⁶ cells, A23187 2 µmol/l, 5 min 37°C, PGD2 by RIA, read-out: IC50 (µmol/l) PGD2) was 0.02 µmol/L.
CN1C(C(=O)Nc2cccc(-c3cc4ccccc4s3)n2)=C(O)c2sc(Cl)cc2S1(=O)=O [Vbg 1, N-[6-(2-Benzo[b]thienyl)-2-pyridinyl]-6-chlor-4-hydrory-2-methyl-2H-thieno[2,3-e][1,2]thiazin-3-carboxamid-1,1-dioxid] gave an IC50 (5-Lipoxygenase; [1]) of 2 µmol/L and an IC50 (Cyclooxygenase; [2]) of 0.049 µmol/L.
CN1C(C(=O)Nc2cccc(-c3ccc(-c4ccccc4)cc3)n2)=C(O)c2sc(Cl)cc2S1(=O)=O [Vbg 2, N-[6-(4-Biphenyl)-2-pyridinyl]-6-chlor-4-hydroxy-2-methyl-2H-thieno[2,3-e][1,2]thiazin-3-carboxamid-1,1-dioxid] gave an IC50 (5-Lipoxygenase) of 1.4 µmol/L and an IC50 (Cyclooxygenase; [2]) of 3.5 µmol/L.
CN1C(C(=O)Nc2cccc(-c3cccc(Oc4ccc(F)cc4)c3)n2)=C(O)c2sc(Cl)cc2S1(=O)=O [Vbg 3, 6-Chlor-N-{6-[3-(4-fluorphenoxy)phenyl]-2-pyridinyl}-4-hydroxy-2-methyl-2H-thieno[2,3-e]-1,2-thiazin-3-carboxamid-1,1-dioxid] was tested, and the IC50 (5-Lipoxygenase; [1]) was 1.7 µmol/L and the IC50 (Cyclooxygenase; [2]) was 0.45 µmol/L.
CN1C(C(=O)Nc2cccc(-c3ccc(Oc4ccc(F)cc4)o3)n2)=C(O)c2sc(Cl)cc2S1(=O)=O [Vbg 4, 6-Chlor-N-{6-[5-(4-fluorphenoxy)-2-furyl]-2-pyridinyl}-4-hydroxy-2-methyl-2H-thieno[2,3-e]-1,2-thiazin-3-carboxamid-1,1-dioxid] was tested, and the IC50 (5-Lipoxygenase; [1]) was 1.3 µmol/L and the IC50 (Cyclooxygenase; [2]) was 1.7 µmol/L.
CN1C(C(=O)Nc2cccc(-c3cc4ccccc4o3)n2)=C(O)c2sc(Cl)c(Cl)c2S1(=O)=O [Vbg 5, N-[6-(2-Benzo[b]furyl)-2-pyridinyl]-6,7-dichlor-4-hydroxy-2-methyl-2H-thieno-[2,3-e][1,2]thiazin-3-carboxamid-1,1-dioxid] was tested, and the IC50 (5-Lipoxygenase; [1]) was 1.3 µmol/L and the IC50 (Cyclooxygenase; [2]) was 0.036 µmol/L.
